Read-outs that look alike come from different tables or passages of the source.

In series [1] the test system is human lung PDE4. To be noted: cited from earlier work.
The test system of series [2] is heart PDE3. To be noted: cited from earlier work.
The target in series [3] is cAMP phosphodiesterase (PDE4). The conditions noted are these: cited from earlier work.
Series [4] relates to isolated human peripheral blood monocytes, eosinophils and T cells. The conditions noted are these: cited from earlier work.
For series [5] the following is noted: in vivo; cited from earlier work.
The test system of series [6] is lung PDE1. The conditions noted are these: cited from earlier work.
Series [7] has as its target T1, lung PDE2.
T1 construct: from tissue; host or cells: lung
To be noted: cited from earlier work.

The target in series [8] is T2, platelet PDE-V (Homo sapiens, UniProt O76074).
T2 construct: from tissue; host or cells: platelets
To be noted: cited from earlier work.

For series [9], the target named is [3H]-rolipram binding to rat brain. The conditions noted are these: read-out: IC50 for inhibition of [3H]-rolipram binding to rat brain; cited from earlier work.
The target of series [10] is PDEIXA (Homo sapiens, UniProt O76083). The conditions noted are these: cited from earlier work.
The target in series [11] is PDEIB (Homo sapiens, UniProt Q01064). The conditions noted are these: cited from earlier work.
Series [12] has as its target PDEIIIB (Homo sapiens, UniProt Q13370). The conditions noted are these: cited from earlier work.
Series [13] deals with PDEXA (Homo sapiens, UniProt Q9Y233). The conditions noted are these: cited from earlier work.
In series [14] the target is PDEVA (Homo sapiens, UniProt O76074). To be noted: cited from earlier work.
For series [15], the target named is PDEXIA (Homo sapiens, UniProt Q9HCR9). The conditions noted are these: cited from earlier work.
For series [16], the target named is PDEVIIB (Homo sapiens, UniProt Q9NP56). The conditions noted are these: cited from earlier work.
For series [17], the target named is PDEIIA (Homo sapiens, UniProt O00408). The conditions noted are these: cited from earlier work.
For series [18], the target named is PDEVIIIA (Homo sapiens, UniProt O60658). The conditions noted are these: cited from earlier work.
The subject of series [19] is LNCaP prostate cancer cells. The experiment in a line: Xcelligence assay, real time electrical impedance measurement of cell growth. The conditions noted are these: Homo sapiens. In kind it is cell-based. How it is done:
The growth data is expressed as a percentage of “untreated” slope value obtained during real time electrical impedance measurements. Measurements were conducted 12 hours after the initial plating down phase of the assay, i.e. 12 hours-60 hours—so as to examine proliferative potential and not morphological change. The cells were assayed without the presence of androgens.
For the Xcelligence assay LNCaP cells were grown at 37° C., 5% CO2, from a seeding value of 5000 cells. The final plating volume was 200 μl. E-Plate 96 well plates were obtained from Roche (Cat No 05232368001). The growth data were obtained during real time electrical impedance measurements. Measurements were conducted 12 hours after the initial plating down phase of the assay, i.e. 12 hours-60 hours—so as to examine proliferative potential and not morphological change. The cells were assayed without the presence of androgens. The significance of differential growth rates were calculated using T-Test of Triplicate Values only. […] The level of average inhibition of cell proliferation is around 50%, which would lead to an IC50 of the compound of ˜10 μM. Compared to an in vitro IC50 for 50% inhibition of PDE4 in vitro of ˜2 μm, an in vivo IC50 of 10 μM let us conclude that the proliferation inhibition effect is largely due to its PDE4 activity.

The subject of series [20] is LNCaP prostate cancer cells. Nature of the series: MTT growth assay, A590 Abs end-point. In kind it is cell-based. The conditions noted are these: Homo sapiens. As for the experimental part: The growth data is expressed as a percentage of as a percentage of the “untreated” A590 Abs reading after 48 hours. The cells were assayed without the presence of androgens.
For the MTT growth assay LNCaP cells were grown at 37° C., 5% CO2, from a seeding value of 5000 cells. The final plating volume was 200 μl. The proliferation assay was obtained from Promega (Cat no G3582). The growth data were obtained during A590 Abs measurements. Measurements were conducted 48 hours after the initial plating. The cells were assayed without the presence of androgens. The significance of final A590 readings was calculated using T-Test of Triplicate Values only. […] The level of average inhibition of cell proliferation is around 50%, which would lead to an IC50 of the compound of ˜10 μM. […]

For series [21] the following is noted: in vivo; cited from earlier work. This is another data set of the same source.
Where [22] appears, read: PDE4 inhibitors, target not given, read-out: IC 50 (Table of Inhibitors).

PDEXIA, sequence (Q9HCR9 whole entry): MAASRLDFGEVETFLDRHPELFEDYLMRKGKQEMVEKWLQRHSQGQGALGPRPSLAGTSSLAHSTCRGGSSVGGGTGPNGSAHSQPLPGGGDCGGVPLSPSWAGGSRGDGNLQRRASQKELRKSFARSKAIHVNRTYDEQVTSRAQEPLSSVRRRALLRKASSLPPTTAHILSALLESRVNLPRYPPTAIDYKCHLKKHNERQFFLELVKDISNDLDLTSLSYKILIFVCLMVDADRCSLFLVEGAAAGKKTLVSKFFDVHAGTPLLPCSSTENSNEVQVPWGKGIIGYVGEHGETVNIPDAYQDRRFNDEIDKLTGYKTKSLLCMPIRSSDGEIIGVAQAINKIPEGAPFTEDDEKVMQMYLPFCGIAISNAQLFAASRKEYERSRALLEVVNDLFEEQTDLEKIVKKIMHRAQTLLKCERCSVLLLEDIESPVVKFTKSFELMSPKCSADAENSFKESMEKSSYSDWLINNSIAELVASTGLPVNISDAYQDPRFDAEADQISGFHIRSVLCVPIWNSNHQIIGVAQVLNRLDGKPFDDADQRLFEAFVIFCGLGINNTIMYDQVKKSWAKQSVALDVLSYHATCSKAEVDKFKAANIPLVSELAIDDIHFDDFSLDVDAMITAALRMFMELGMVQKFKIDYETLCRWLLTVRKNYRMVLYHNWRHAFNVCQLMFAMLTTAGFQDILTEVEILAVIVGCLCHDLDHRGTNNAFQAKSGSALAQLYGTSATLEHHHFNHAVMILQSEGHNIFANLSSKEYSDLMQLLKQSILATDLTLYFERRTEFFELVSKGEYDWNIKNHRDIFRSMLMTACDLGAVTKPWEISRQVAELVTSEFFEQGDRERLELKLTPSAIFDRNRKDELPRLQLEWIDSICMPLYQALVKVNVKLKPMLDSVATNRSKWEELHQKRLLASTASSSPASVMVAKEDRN
PDEIXA, sequence (O76083 whole entry): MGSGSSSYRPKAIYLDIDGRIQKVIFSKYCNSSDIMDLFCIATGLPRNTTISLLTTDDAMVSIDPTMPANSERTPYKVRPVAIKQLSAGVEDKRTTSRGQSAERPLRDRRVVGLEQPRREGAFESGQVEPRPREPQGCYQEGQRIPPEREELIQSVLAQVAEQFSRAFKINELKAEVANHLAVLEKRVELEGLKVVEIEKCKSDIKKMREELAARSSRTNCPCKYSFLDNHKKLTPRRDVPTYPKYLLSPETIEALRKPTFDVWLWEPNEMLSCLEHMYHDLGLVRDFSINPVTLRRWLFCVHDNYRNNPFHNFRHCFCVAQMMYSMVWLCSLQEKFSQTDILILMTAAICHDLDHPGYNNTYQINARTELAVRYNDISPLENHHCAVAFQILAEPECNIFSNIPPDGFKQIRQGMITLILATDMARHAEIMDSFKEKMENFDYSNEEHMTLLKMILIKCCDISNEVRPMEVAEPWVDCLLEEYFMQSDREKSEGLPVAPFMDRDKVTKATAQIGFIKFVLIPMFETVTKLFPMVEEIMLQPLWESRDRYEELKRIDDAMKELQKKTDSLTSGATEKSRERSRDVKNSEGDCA
PDEIIIB, sequence (Q13370 whole entry): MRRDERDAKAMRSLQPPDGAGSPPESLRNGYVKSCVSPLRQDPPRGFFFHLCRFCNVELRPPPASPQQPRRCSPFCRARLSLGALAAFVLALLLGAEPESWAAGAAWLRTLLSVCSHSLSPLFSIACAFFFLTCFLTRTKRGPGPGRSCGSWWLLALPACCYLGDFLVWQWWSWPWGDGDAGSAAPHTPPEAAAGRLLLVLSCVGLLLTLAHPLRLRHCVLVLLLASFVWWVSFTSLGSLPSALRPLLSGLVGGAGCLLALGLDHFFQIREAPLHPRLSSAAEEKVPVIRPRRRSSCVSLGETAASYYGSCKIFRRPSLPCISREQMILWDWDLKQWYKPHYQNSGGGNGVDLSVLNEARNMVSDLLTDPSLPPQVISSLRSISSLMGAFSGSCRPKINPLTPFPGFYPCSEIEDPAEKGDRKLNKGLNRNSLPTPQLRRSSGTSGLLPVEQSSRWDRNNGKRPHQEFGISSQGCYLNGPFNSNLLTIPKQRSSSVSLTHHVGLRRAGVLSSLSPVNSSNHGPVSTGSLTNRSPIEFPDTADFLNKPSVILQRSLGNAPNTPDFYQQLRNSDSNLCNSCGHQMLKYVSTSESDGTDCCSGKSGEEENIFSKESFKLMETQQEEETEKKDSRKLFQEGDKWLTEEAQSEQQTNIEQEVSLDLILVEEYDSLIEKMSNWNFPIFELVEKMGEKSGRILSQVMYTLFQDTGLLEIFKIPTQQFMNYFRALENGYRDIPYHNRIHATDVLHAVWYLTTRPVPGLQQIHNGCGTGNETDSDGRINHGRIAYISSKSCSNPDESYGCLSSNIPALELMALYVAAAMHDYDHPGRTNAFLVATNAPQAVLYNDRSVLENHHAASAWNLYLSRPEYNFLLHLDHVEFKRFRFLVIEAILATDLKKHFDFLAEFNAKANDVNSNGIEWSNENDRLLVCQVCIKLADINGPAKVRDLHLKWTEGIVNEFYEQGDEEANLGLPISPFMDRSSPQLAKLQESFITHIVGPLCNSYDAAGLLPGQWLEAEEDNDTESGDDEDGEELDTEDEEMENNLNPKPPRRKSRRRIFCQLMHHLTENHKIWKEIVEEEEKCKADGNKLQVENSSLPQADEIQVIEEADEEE
PDEIIA, sequence (O00408 whole entry): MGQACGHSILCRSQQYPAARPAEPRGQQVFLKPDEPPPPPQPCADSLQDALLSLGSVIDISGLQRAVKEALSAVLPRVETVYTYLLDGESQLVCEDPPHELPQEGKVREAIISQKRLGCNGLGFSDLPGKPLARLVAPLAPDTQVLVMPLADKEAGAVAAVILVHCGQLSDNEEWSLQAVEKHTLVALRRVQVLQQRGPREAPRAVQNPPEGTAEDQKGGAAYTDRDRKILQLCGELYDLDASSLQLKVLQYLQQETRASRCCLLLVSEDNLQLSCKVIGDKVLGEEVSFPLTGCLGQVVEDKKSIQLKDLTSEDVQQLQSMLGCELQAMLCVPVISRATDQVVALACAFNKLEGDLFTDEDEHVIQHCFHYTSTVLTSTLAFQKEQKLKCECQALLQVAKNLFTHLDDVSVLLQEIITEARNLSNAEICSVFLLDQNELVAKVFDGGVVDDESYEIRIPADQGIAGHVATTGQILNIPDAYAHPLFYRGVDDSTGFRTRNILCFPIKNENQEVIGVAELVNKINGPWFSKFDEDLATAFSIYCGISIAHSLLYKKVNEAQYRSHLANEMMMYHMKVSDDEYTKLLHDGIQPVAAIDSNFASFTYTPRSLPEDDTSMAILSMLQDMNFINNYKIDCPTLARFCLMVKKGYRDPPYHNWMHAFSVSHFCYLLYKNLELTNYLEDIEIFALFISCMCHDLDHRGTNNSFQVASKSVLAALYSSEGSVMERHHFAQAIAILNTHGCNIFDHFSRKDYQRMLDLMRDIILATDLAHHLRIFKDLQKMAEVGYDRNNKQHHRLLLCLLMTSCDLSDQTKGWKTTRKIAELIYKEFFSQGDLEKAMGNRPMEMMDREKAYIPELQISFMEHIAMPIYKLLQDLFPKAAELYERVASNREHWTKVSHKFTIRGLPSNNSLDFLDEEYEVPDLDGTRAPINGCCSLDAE
T1 sequence (O00408 whole entry): as above
PDEIB, sequence (Q01064 whole entry): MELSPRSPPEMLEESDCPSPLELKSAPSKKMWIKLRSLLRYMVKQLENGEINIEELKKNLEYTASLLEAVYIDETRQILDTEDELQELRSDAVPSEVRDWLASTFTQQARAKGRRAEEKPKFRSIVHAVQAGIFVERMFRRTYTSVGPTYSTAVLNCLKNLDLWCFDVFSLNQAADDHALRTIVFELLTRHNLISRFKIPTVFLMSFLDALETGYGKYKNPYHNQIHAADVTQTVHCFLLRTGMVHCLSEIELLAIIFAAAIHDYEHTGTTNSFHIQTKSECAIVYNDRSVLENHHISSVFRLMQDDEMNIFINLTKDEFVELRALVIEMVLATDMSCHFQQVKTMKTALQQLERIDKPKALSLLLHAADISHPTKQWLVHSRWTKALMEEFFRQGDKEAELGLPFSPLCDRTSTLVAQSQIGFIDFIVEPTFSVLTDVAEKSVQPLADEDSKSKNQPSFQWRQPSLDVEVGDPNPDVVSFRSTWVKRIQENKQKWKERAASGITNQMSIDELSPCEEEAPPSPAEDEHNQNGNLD
PDEVIIIA, sequence (O60658 whole entry): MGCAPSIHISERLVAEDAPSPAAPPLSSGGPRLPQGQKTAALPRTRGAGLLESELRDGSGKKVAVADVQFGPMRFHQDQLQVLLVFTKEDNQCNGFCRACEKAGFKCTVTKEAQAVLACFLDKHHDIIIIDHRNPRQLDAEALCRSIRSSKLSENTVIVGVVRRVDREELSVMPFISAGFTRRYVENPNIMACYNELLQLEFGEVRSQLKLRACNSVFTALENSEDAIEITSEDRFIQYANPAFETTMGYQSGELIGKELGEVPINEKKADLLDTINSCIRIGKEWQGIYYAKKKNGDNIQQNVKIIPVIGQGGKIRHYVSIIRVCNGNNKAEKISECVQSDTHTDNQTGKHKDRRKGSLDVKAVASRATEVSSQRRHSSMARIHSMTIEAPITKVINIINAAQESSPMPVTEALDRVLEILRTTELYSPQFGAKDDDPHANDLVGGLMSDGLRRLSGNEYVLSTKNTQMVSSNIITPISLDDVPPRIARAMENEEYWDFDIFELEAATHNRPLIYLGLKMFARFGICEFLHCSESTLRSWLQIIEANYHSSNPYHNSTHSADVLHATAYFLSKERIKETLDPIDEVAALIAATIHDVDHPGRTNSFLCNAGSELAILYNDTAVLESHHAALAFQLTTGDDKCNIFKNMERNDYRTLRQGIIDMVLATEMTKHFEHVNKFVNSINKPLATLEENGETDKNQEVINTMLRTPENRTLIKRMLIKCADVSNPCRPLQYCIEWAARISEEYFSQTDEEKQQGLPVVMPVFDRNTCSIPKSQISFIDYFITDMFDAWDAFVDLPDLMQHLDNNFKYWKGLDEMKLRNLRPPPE

Take `COc1ccc(C2CNC(=O)NC2)cc1O[C@H]1C[C@@H]2CC[C@H]1C2` [CP80633]: the IC50 in series [1] was 1.9 µM; in [2], greater than 100 µM; in series [3] (setting [22]) it was 1.9 µM; in series [6], greater than 100 µM; in [7], greater than 100 µM; in series [8], greater than 100 µM. Moreover, the PDE4 isozyme selectivity entry in [1] is reported as “no significant PDE4 isozyme selectivity”. Further, the “hydrolysis of cAMP in blood cells” value in series [4] is “inhibits hydrolysis of cAMP”. Also, in series [5], the “anti-inflammatory and bronchodilatory effects” value was “anti-inflammatory and bronchodilatory effects in vivo”.

As for `CCCn1c(=O)c(C)cn2nc(N)nc12` [ICI63197], the IC50 in series [9] and in series [3] (setting [22]) was 0.035 µM each time.

Consider `CCOC(=O)c1c(C)nn(-c2cccc([N+](=O)[O-])c2)c1C` [Phosphodiesterase 4 Inhibitor], for which the IC50 in [10] is greater than 30 µM; in [11] it was greater than 30 µM; in series [12], greater than 30 µM; in series [13] it was 6.9 µM; in series [14], greater than 30 µM; in series [15], greater than 30 µM. In addition, the IC50 was 0.033 µM in [3] (setting [22]), greater than 30 µM in [16], greater than 30 µM in series [17] and greater than 30 µM in [18].

For `COc1ccc(C2CNC(=O)C2)cc1OC1CCCC1` (stereo not drawn) [Rolipram], the inhibition at 10 µM in series [19] (10 uM, 12-60 hours, without androgens, p<0.01, read-out: level of average inhibition of cell proliferation) was roughly 50%; in series [20] (10 μM, 48 hours, without androgens, p<0.01, read-out: level of average inhibition of cell proliferation) it was roughly 50%. For the same molecule, the IC50 in series [19] (real-time growth, concluded from 50% inhibition at 10 uM, read-out: IC50 of cell proliferation inhibition) is roughly 10 µM; in [3] (setting [22]), 1 µM; in series [3] (in vitro, read-out: in vitro IC50 for 50% inhibition of PDE4), roughly 2 µM; in series [3] (read-out: IC50, PDE4), 2 µM; in [20] (end-point growth, concluded from 50% inhibition at 10 μM, read-out: IC50 of cell proliferation inhibition), roughly 10 µM.

For the molecule `CCc1ccc2c(-c3cccc(Cl)c3)nc(=O)n(CC)c2n1` [YM976], in series [21], the emetogenic activity entry is reported as “low emetogenic activity”. The IC50 in series [3] (read-out: IC50, PDE4) is 0.0022 µM.
